From patent publication US20230332239A1, “METHODS OF TREATING CANCER” (ASTRAZENECA AB, priority 2019, published 2023)
Several values for one entry are separate records, joined by “and”; a condition that tells them apart may be missing. Equal entries are not always repeated.

Experiments:
Type in all cases: in vivo, human
[1] = test system: adenosine signalling signature (A2AR); assay: Phase 1A study NCT02740985: adenosine signalling signature scores in pre-dose and on-treatment tumour biopsies
Source text: We scored transcriptome data with the signature using GSVA (60). This method is robust to outlying genes expressed at different orders of magnitude and generates scores amenable to downstream statistical interpretation. We observe a strong linear correlation between signatures representing immune processes/features and tumour purity in TCGA (see FIG. 7). To account for this bias we adjust the signature scores for tumour purity by fitting a linear regression derived from all samples in TCGA versus tumour purity and then applying the following correction:
Immune cell infiltrates were determined with an SVR approach based on CIBERSORT (36) to define relative immune cell abundance. To study the association of adenosine with CD8^+ T cell infiltration we consider CD8 high tumours to be greater than the median of CD8A expression across all samples. All other cell or cell-state signatures were scored using GSVA. NK cell exhaustion was determined using expression of KIR3DL1, KIR3DL2, IL2RA, IL15RA, HAVCR2 and EOMES. Cytotoxicity was determined using the expression of: NKG7, CST7, PRF1, GZMA, GZMB and IFNG. CD8 Exhaustion was determined using the signature provided in (Danaher et al. 2017). IFNG signalling was determined using the signature presented by (Ayers et al. 2017).
(§1) The first-in-human trial, NCT02740985, was conducted to assess safety, PK and pharmacodynamic activity of AZD4635 as monotherapy and in combination with durvalumab in patients with treatment refractory solid tumours. Pre-dose and on-treatment tumour biopsies were collected from 7 subjects who were treated with AZD4635 monotherapy at or below the maximum tolerated dose (MTD) of 100 mg PO daily.
Total RNA was extracted from tumour tissue macrodissected from […] thick FFPE sections using the miRNeasy FFPE Kit (QIAGEN). RNA integrity and quantity were assessed on the TapeStation 2200 using the RNA ScreenTape System (Agilent). […]
The RNA was subsequently analyzed for gene expression using the NanoString nCounter FLEX Analysis System and the commercially available 770-gene, human PanCancer Immune Profiling Panel (NanoString). […]

prostate cancer = assay: Progression-free survival of prostate cancer patients in phase 1A study of AZD4635, grouped by group I signature
Description: To derive signatures geared toward adenosine-drive prostate cancers, time-series of samples from 96 patients prostate cancer patients enrolled in the phase 1A study of AZD4635 (NCT02740985) were collected and analyzed for gene expression by using the NanoString nCounter FLEX Analysis System and the commercially available 770-gene, human PanCancer Immune Profiling Panel (NanoString). The time series was up to 120 weeks for some patients. Signatures were tested for their concordance with progression-free survival (PFS), where progression is objective disease progression (by PSA recurrence or RECIST 1.1 criteria), or death by any cause in the absence of progression. (A concordance index of 0.5 represents random chance; a concordance index of 1 represents perfect prediction.) The concordance index, in this context, is a measure of how successful a given signature is in predicting PFS; that is, if stratifying patients into ‘adenosine-low’ and ‘adenosine-high’ groups correlated with the adenosine-high group having a longer median PFS than the adenosine-low group (patients with tumors that are more strongly adenosine drive should benefit more from treatment with the A2AR antagonist AZD4635). The stronger that correlation, the greater the concordance index.

[2] = Phase 1A study NCT02740985: safety, maximum tolerated dose; conditions: monotherapy, PO daily, patients with treatment refractory solid tumours
Description: as §1

## Cc1cc(-c2nnc(N)nc2-c2ccc(F)cc2)cc(Cl)n1 [AZD4635, 6-(2-chloro-6-methylpyridin-4-yl)-5-(4-fluorophenyl)-1,2,4-triazin-3-amine]
[1]; of the 5 patients with reduced scores, out of 7 treated
  patients with reduced adenosine scores who also had increases in gene expression signatures of cytolytic activity and IFNG signalling: 4 patients
[1]; solid tumours, AZD4635 monotherapy once daily at or below MTD, on-treatment vs pre-dose biopsy
  patients with reduced adenosine signalling scores: 5 of the 7 and 5 of 7
[1]; solid tumours, AZD4635 once daily, 7 patients
  share of patients with reduced adenosine signalling scores: 70%
Prostate cancer; p=0.008 vs adenosine-high
  median PFS, adenosine-low group: 12 weeks
Prostate cancer; p=0.008 vs adenosine-low
  median PFS, adenosine-high group: 34 weeks
[2]
  maximum tolerated dose (MTD): 100 mg
